Here are results for 13 compounds from patent US5001134A, “Piperidines, processes of preparation and medications containing them” (Lipha, Lyonnaise Industrielle Pharmaceutique, priority 1989, dated 1991).

Data set [1] deals with genetically hypertensive rat (SHR). The data set is described as follows: Antihypertensive activity in the genetically hypertensive rat (SHR), oral, arterial pressure measured 3 hours later. In kind it is in vivo. To be noted: SHR male rats, groups of 10, 3 hours after oral treatment, read-out: Antihypertensive activity (SHR) M.A.D. (minimum dose significantly reducing the mean arterial pressure). As for the experimental part: The antihypertensive activity was investigated in the genetically hypertensive rat (SHR) whose arterial pressure was regularly monitored: hypertensive male rats having a particularly stable arterial pressure are grouped by 10 and treated orally with the compounds being studied Their arterial pressure is measured 3 hours later.
(§1) The results obtained by these two methods in the case of a few products of the invention and in the case of ketanserin (3-[2-[4-(4-fluorobenzoyl)-1-piperidinyl]ethyl]quinazolin-2,4-(1H,3H)-dione), taken as control, are listed in Table I.

For a further data set, the system named is isolated rat aorta. The data set is described as follows: Antagonism towards serotonin in vitro on the isolated rat aorta (serotonin-triggered contraction). To be noted: contraction by serotonin 20 μM, product added 10 min after serotonin, left 15 min, minimum of 3 aortas, read-out: Isolated rat aorta antiserotonin activity IC 50. As for the experimental part: The thoracic aorta is rapidly removed. A fragment of approximately 1 cm is cut into a spiral and then placed in a cell containing 20 ml of nutrient medium (Krebs-Henseleit) kept at 37° C. and oxygenated (95% O2, 5% CO2). The contraction is recorded using an isotonic strain gauge. After a rest of 45 min, supramaximal contractions are triggered by adding serotonin (20 μM) to the survival medium. A plateau is generally reached after 10 min of contact, the latter not exceeding 25 min. A rest of 30 min and numerous rinsings separate each contraction. The products are added 10 min after the serotonin and left for 15 min, at the end of which period the inhibition is measured. The inhibiting concentration 50 (IC 50) is determined for each compound being studied on a minimum of 3 aortas.
as §1

Data set [2] can be described thus: Toxicity, 50 lethal dose on the rat using the oral route. The note with it: in vivo. How it is done:
By way of illustration, the 50 lethal dose determined on the rat using the oral route, in the case of the compound described in Example 1, is 1,700 mg/kg, that is 170 times the active dose in this species.

Structures are written as SMILES.

On to `CNC(=NC#N)NCCN1CCC(C(=O)c2ccc(F)cc2)CC1` [Example 1, N-Cyano-N'-[2-[4-(4-fluorobenzoyl)-1-piperidinyl]ethyl]-N"-methylguanidine], for which the minimal effective dose in data set [1] came to 10 mg/kg. For the same compound, the IC50 with isolated rat aorta turned out to be 530 nM. The same compound came in with an LD50 in data set [2] (oral route) of 1700 mg/kg. For the same compound, the selectivity ratio in data set [2] (oral, LD50 / active dose, read-out: 50 lethal dose as multiple of the active dose in this species) was found to be 170.

For the compound `CN(C)C(=NCCN1CCC(C(=O)c2ccc(F)cc2)CC1)NC#N` [Example 10, N'-Cyano-N,N-dimethyl-N"-[2-[4-(4-fluorobenzoyl)-1-piperidinyl]ethyl]guanidine], in data set [1], the minimal effective dose worked out at 10 mg/kg. In the data set on isolated rat aorta, the IC50 is 460 nM.

Turning to `CN=C(NC#N)NCCCN1CCC(C(=O)c2ccc(F)cc2)CC1` [Example 12, N-Cyano-N'-[3-[4-(4-fluorobenzoyl)-1-piperidinyl]propyl]-N"-methylguanidine], the minimal effective dose in data set [1] came to 5 mg/kg. For the same compound, in the data set on isolated rat aorta, the IC50 came to 170 nM.

For the compound `CN(C)C(=NC#N)NCCCN1CCC(C(=O)c2ccc(F)cc2)CC1` [Example 13], the minimal effective dose in data set [1] came out at 5 mg/kg. In addition, the IC50 in the data set on isolated rat aorta was 1950 nM.

With `CN=C(NC#N)NCCCCN1CCC(C(=O)c2ccc(F)cc2)CC1` [Example 14, N-Cyano-N'-[4-[4-(4-fluorobenzoyl)-1-piperidinyl]butyl]-N"-methylguanidine], in data set [1], the minimal effective dose was determined as 10 mg/kg. In addition, the IC50 in the data set on isolated rat aorta came to 670 nM.

As to `CN=C(NC#N)NCCN1CCC(c2noc3cc(F)ccc23)CC1` [Example 18, N-Cyano-N'-[2-[4-(6-fluoro-1,2-benzisoxazol-3-yl)-1-piperidinyl]ethyl]-N"-methylguanidine], the minimal effective dose in data set [1] was 2 mg/kg. Besides, the IC50 in the data set with isolated rat aorta is 90 nM.

On to `CN=C(NC#N)NCCCN1CCC(c2noc3cc(F)ccc23)CC1` [Example 19, N-Cyano-N'-[3-[4-(6-fluoro-1,2-benzisoxazol-3-yl)-1piperidinyl]propyl]-N"-methylguanidine], for which the minimal effective dose in data set [1] amounted to 0.5 mg/kg. In addition, in the data set with isolated rat aorta, the IC50 was found to be 50 nM.

In the case of `CCNC(=NCCCN1CCC(c2noc3cc(F)ccc23)CC1)NC#N` [Example 20, N-Cyano-N'-ethyl-N"-[3-[4-(6-fluoro-1,2-benzisoxazol-3-yl)-1-piperidinyl]propyl]guanidine], in data set [1], the minimal effective dose came to 0.5 mg/kg. In addition, in the data set on isolated rat aorta, the IC50 came to 40 nM.

As to `CN(C)C(=NCCCN1CCC(c2noc3cc(F)ccc23)CC1)NC#N` [Example 21, N'-Cyano-N,N-dimethyl-N"-[3-[4-(6-fluoro-1,2-benzisoxazol-3-yl)-1-piperidinyl]propyl]guanidine], in data set [1], the minimal effective dose is 2 mg/kg. For the same compound, the IC50 in the data set on isolated rat aorta was 100 nM.

Turning to `N#CNC(=N)NCCCN1CCC(c2noc3cc(F)ccc23)CC1` [Example 22, N-Cyano-N'-[3-[4-(6-fluoro-1,2-benzisoxazol-3-yl)-1-piperidinyl]propyl]guanidine], the minimal effective dose in data set [1] amounted to 5 mg/kg. The IC50 in the data set on isolated rat aorta stood at 20 nM.

As for `CNC(=C[N+](=O)[O-])NCCN1CCC(C(=O)c2ccc(F)cc2)CC1` [Example 24, N-[2-[4-(4-Fluorobenzoyl)-1-piperidinyl]ethyl]-N'-methyl-2-nitro-1,1-ethenediamine], the minimal effective dose in data set [1] turned out to be 10 mg/kg. Besides, the IC50 with isolated rat aorta stood at 2900 nM.

Turning to `CNC(=C[N+](=O)[O-])NCCN1CCC(c2noc3cc(F)ccc23)CC1` [Example 26, N-[2-[4-(6-Fluoro-1,2-benzisoxazol-3-yl)-1-piperidinyl]ethyl]-N'-methyl-2-nitro-1,1-ethenediamine], in data set [1], the minimal effective dose was 5 mg/kg. Further, the IC50 in the data set with isolated rat aorta stood at 380 nM.

For the compound `O=C(c1ccc(F)cc1)C1CCN(CCn2c(=O)[nH]c3ccccc3c2=O)CC1` [Ketanserin, 3-[2-[4-(4-fluorobenzoyl)-1-piperidinyl]ethyl]quinazolin-2,4-(1H,3H)-dione, reference compound], the minimal effective dose in data set [1] worked out at 25 mg/kg. Also, the IC50 in the data set on isolated rat aorta came out at 150 nM.

The LD50 is the dose expected to kill half of the subjects tested. A lower LD50 goes with a more toxic substance.
